The values below come from patent US20260374766A1, “METHODS FOR TREATING CANCER” (Antares Therapeutics, Inc., priority 2022, published 2026).

Read-outs that look alike come from different tables or passages of the source.

For assay [1], the target named is T1, p53 Y220C mutant protein (amino acid residues 94-293) (Homo sapiens, UniProt P04637, Y220C).
T1 construct: p53 Y220C mutant protein (amino acid residues 94-293)
As to the kind of experiment: Surface Plasmon Resonance (SPR) assay, Kd_kinetic. It counts as binding. The conditions noted are these: SPR, p53 Y220C, read-out: SPR P53 Y220C KD kinetic. In outline:
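Surface plasmon resonance is run at 16 or 20 °C in 50 mM Tris pH 7.5 containing 100 mM NaCl, 1 mM DTT, 0.01% Brij35, 0.05% Tween-20 and 1% DMSO. Association and dissociation data are fitted to a 1:1 model.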

The target of assay [2] is T1, p53 Y220C mutant protein (amino acid residues 94-293). In words: Thermal Shift Assay (TSA), dTM. The format is binding. The following applies: for ΔTm at 100 µM: 100 uM compound, read-out: TSA P53 Y220C dTM (100 uM); for ΔTm at 10 µM: 10 uM compound. In a few lines: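 First, the mutant DNA-binding domain (5 μM) was preincubated 3 hours at 20 °C with compound at 10 μM or 100 μM. Next, the sample was heated from 30 °C to 50 °C at 0.03 °C/second in the presence of Sypro Orange. Finally, TM was obtained from a two-state Boltzmann fit.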

In a further assay the target is p53 Y220C (Homo sapiens, UniProt P04637, Y220C). As to the kind of experiment: Luciferase Reporter Assay (Luc), p53 response element, NClH1299 cells with inducible p53 Y220C. The following applies: luciferase reporter, NClH1299 inducible p53 Y220C, 6 hour; for AC50: read-out: Luc P53 Y220C AC50. The format is cell-based. In outline: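 Luciferase activity is measured directly after One-Glo addition and a 5-minute room-temperature shake. Before that, cells plated at 5,000 per well receive doxycycline at 0.5 ug/mL for 24 hours, followed by compound for 6 hours.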
A general note: Reporter assays use an easily measured gene product as a stand-in for the process of interest.

In the next assay the test system is NUGC3 p53 Y220C. In words: Cell Proliferation Assay (CellTiter-Glo, CTG), NUGC3 p53 Y220C. It counts as cell-based. The following applies: Homo sapiens, NUGC-3, 120 h, CellTiter-Glo, 5 days. In outline: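 Tet-One inducible p53 Y220C or R273H constructs were stably introduced into NCI-H1299 by lentiviral transduction; NUGC3 was used as is. Cells (250-500 per well) were exposed to compound for 5 days, then CellTiter-Glo was added for 10 min at room temperature and IC50 was calculated from luminescence.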
Background: In ATP-based viability assays light output follows the ATP content of the culture.

The test system of the next assay is H1299 p53 Y220C. As to the kind of experiment: Cell Proliferation Assay (CellTiter-Glo, CTG), H1299 p53 Y220C (NClH1299-inducible p53 Y220C). The format is cell-based. The following applies: Homo sapiens, NCI-H1299, 120 h, CellTiter-Glo, 5 days. In a few lines:
(§1)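 Cells seeded at 250-500 per well and exposed to compound for 5 days. Viability read by CellTiter-Glo luminescence after 10 min at room temperature; IC50 calculated. H1299 lines carry Tet-One inducible p53 mutant constructs introduced by lentiviral transduction.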

The next assay deals with H1299 p53 R273H. In words: Cell Proliferation Assay (CellTiter-Glo, CTG), H1299 p53 R273H (NClH1299-inducible p53 R273H). The format is cell-based. The conditions noted are these: Homo sapiens, NCI-H1299, 120 h, CellTiter-Glo, 5 days. In outline: as §1
Where [3] appears, read: 10 uM tool compound as positive control.
Setting [4] is: p53 Y220C, read-out: TSA P53 Y220C dTM.
[5] abbreviates: NClH1299-inducible p53 Y220C cells.
The mark [6] stands for this setting: NClH1299-inducible p53 R273H cells.
[7] abbreviates: thermal shift, read-out: TSA P53 Y220C dTM (10 uM).

As usually defined, the Kd is the constant that tells how readily two partners part at equilibrium. As a reminder, the Emax is the greatest response seen or fitted, relative to the assay's reference. What is called AC50 is the concentration at which the activity in the assay is half-maximal. Broadly, the IC50 is the midpoint of a concentration-inhibition curve. Read a low IC50 as greater potency in that assay. For the compound `COc1cc(S(C)(=O)=O)ccc1NCC#Cc1nc2c(N[C@@H]3CCNC[C@@H]3F)cccn2c1CC(F)(F)F` [Example 8, (3S,4R)-3-fluoro-N-(2-{3-[(4-methanesulfonyl-2-methoxyphenyl)amino]prop-1-yn-1-yl}-3-(2,2,2-trifluoroethyl)imidazo[1,2-a]pyridin-8-yl)piperidin-4-amine], the Kd in assay [1] (kinetic KD) is below 10 nM. Moreover, the ΔTm at 100 µM in assay [2] (thermal shift) was at least 10 °C. Further, the Emax on p53 Y220C (setting [3]) lay within 70 to 80%. For the same compound, the AC50 on p53 Y220C is 750 to 1500 nM. Also, the IC50 was 750 to 1500 nM with NUGC3 p53 Y220C (NUGC3 p53 Y220C), 750 to 1500 nM in the assay with H1299 p53 Y220C (H1299 p53 Y220C) and 5000 to 8000 nM with H1299 p53 R273H (H1299 p53 R273H).

Turning to `CC#Cc1nn2c(N[C@@H]3CCN(C)C[C@@H]3F)cccc2c1CC(F)(F)F` [Example 20, (3S,4R)-3-fluoro-1-methyl-N-[2-(prop-1-yn-1-yl)-3-(2,2,2-trifluoroethyl)pyrazolo[1,5-a]pyridin-7-yl]piperidin-4-amine], the Kd in assay [1] (kinetic KD) was 10 to 100 nM. In assay [2] (thermal shift), the ΔTm at 100 µM was 5 to 10 °C. Besides, the Emax at p53 Y220C (setting [3]) is below 70%. In addition, the AC50 at p53 Y220C was above 3000 nM. For the same compound, the IC50 is above 3000 nM in the assay with NUGC3 p53 Y220C (NUGC3 p53 Y220C), above 3000 nM with H1299 p53 Y220C (H1299 p53 Y220C) and at least 10000 nM in the assay on H1299 p53 R273H (H1299 p53 R273H).

`CNC(=O)c1ccc(NCC#Cc2nc3c(N[C@@H]4CCNC[C@@H]4F)nccn3c2SC(F)(F)F)c(OC)c1` [Example 319]: the Kd in assay [1] was below 10 nM. In assay [2] (setting [4]), the ΔTm at 10 µM was at least 10 °C. In addition, the AC50 on p53 Y220C (AC50) is below 750 nM. The compound also returned an Emax on p53 Y220C (Emax) above 90%. In addition, the IC50 in the assay with NUGC3 p53 Y220C (NUGC3 cells) was below 750 nM; with H1299 p53 Y220C (setting [5]), below 750 nM; in the assay with H1299 p53 R273H (setting [6]), at least 10000 nM.

Take `CNC(=O)c1ccc(NCC#Cc2nc3c(N[C@H]4C[C@@H]5CC[C@H]([C@H]4F)N5C)cccn3c2SC(F)(F)F)c(OC)c1` [Example 130]: the Kd in assay [1] (kinetic KD) was below 10 nM. Also, in assay [2] (setting [7]), the ΔTm at 10 µM is at least 10 °C. The ΔTm at 100 µM in assay [2] (thermal shift) is at least 10 °C. In addition, on p53 Y220C (setting [3]), the Emax is 70 to 80%. Besides, the concentration at half-maximal activity (AC50) on p53 Y220C is below 750 nM. Also, the IC50 is below 750 nM in the assay with NUGC3 p53 Y220C (NUGC3 p53 Y220C), below 750 nM in the assay with H1299 p53 Y220C (H1299 p53 Y220C) and 5000 to 8000 nM with H1299 p53 R273H (H1299 p53 R273H).

As for `CNC(=O)c1ccc(OC)c(NCC#Cc2nc3c(N[C@@H]4CN(C)C[C@@H]4F)cccn3c2SC(F)(F)F)n1` [Example 171], in assay [1] (kinetic KD), the Kd is below 10 nM. The ΔTm at 10 µM in assay [2] (setting [7]) is at least 10 °C. In addition, the ΔTm at 100 µM in assay [2] (thermal shift) is at least 10 °C. The Emax at p53 Y220C (setting [3]) lay in the range of 70 to 80%. The AC50 at p53 Y220C is below 750 nM. In addition, the IC50 with NUGC3 p53 Y220C (NUGC3 p53 Y220C) is below 750 nM; in the assay with H1299 p53 Y220C (H1299 p53 Y220C) it was below 750 nM; in the assay with H1299 p53 R273H (H1299 p53 R273H), at least 10000 nM.

`CNC(=O)c1ccc(NCC#Cc2cc3c(N[C@@H]4CCNC[C@@H]4F)cccn3c2SC(F)(F)F)c(OC)c1` [Example 354]: the Kd in assay [1] was below 10 nM. In addition, in assay [2] (setting [4]), the ΔTm at 10 µM was at least 10 °C. Moreover, at p53 Y220C (AC50), the AC50 is below 750 nM. The compound also had an Emax on p53 Y220C (Emax) above 90%. For the same compound, the IC50 in the assay on NUGC3 p53 Y220C (NUGC3 cells) is below 750 nM; with H1299 p53 Y220C (setting [5]), below 750 nM; with H1299 p53 R273H (setting [6]) it was 5000 to 8000 nM.

On to `CNC(=O)c1cnc(OC)c(NCC#Cc2cc3c(N[C@@H]4CCN(C)C[C@@H]4F)nccn3c2SC(F)F)c1` [Example 327], for which the Kd in assay [1] was below 10 nM. Also, the ΔTm at 10 µM in assay [2] (setting [4]) is at least 10 °C. For the same compound, the AC50 on p53 Y220C (AC50) was below 750 nM. For the same compound, the Emax on p53 Y220C (Emax) was above 90%. The IC50 is below 750 nM with NUGC3 p53 Y220C (NUGC3 cells), below 750 nM in the assay on H1299 p53 Y220C (setting [5]) and at least 10000 nM in the assay with H1299 p53 R273H (setting [6]).
